Results taken from patent US7544497B2, “Compositions for manipulating the lifespan and stress response of cells and organisms” (President and Fellows of Harvard College, priority 2003, dated 2009).

Assays:
rDNA recombination = experiment: Ribosomal DNA recombination frequency (loss of ADE2 marker); assay type: cell-based, S. cerevisiae; conditions: SIR2-dependent
Human recombinant SIRT2 = molecular target: T1, Human recombinant SIRT2 (Homo sapiens, UniProt Q8IXJ6); experiment: SIRT2 deacetylation assay (Fluor de Lys-SIRT2); assay type: biochemical; conditions: 25 μM Fluor de Lys-SIRT2, 25 μM NAD+, 20 minutes, 37° C.
T1 sequence (Q8IXJ6 1-389): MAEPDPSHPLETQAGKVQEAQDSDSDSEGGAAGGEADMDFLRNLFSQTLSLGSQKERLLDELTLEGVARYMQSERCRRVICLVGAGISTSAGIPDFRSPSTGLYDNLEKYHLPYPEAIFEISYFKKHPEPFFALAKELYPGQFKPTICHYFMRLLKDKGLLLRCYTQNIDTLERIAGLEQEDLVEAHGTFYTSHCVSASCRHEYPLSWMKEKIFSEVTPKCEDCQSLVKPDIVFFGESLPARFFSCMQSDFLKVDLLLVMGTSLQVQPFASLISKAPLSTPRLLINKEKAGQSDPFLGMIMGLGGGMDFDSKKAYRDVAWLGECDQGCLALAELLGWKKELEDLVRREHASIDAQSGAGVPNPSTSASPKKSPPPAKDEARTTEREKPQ
Text: Yeast Sir2 and human SIRT1 are very homologous and differ from human SIRT2 by the addition of an N-terminal domain that is absent in SIRT2. […] Thus, based on the difference in structure of SIRT1 and SIRT2, i.e., the absence of an N-terminal domain (see FIG. 8), it is believed that the N-terminal domain of SIRT1 and Sir2 is necessary for activation by the compounds described herein. In particular, it is likely that the activator compounds described herein interact with the N-terminal portion of sirtuins. The N-terminal portion of SIRT1 that is necessary for the action of the compounds is from about amino acid 1 to about amino acid 176, and that of Sir2 is from about amino acid 1 to about amino acid 175.

[1] = test system: lysine 382 of p53 in U2OS osteosarcoma cells; experiment: p53 Ac-K382 Western blot after UV radiation; assay type: cell-based, human
recombinant dSir2 = molecular target: T2, recombinant dSir2 (Drosophila melanogaster, UniProt Q9VK34); experiment: dSir2 deacetylation assay (Fluor de Lys); assay type: biochemical, D. melanogaster; conditions: dose-dependent; 25 μM NAD+, 10 μM FdL
T2 sequence (Q9VK34 1-823): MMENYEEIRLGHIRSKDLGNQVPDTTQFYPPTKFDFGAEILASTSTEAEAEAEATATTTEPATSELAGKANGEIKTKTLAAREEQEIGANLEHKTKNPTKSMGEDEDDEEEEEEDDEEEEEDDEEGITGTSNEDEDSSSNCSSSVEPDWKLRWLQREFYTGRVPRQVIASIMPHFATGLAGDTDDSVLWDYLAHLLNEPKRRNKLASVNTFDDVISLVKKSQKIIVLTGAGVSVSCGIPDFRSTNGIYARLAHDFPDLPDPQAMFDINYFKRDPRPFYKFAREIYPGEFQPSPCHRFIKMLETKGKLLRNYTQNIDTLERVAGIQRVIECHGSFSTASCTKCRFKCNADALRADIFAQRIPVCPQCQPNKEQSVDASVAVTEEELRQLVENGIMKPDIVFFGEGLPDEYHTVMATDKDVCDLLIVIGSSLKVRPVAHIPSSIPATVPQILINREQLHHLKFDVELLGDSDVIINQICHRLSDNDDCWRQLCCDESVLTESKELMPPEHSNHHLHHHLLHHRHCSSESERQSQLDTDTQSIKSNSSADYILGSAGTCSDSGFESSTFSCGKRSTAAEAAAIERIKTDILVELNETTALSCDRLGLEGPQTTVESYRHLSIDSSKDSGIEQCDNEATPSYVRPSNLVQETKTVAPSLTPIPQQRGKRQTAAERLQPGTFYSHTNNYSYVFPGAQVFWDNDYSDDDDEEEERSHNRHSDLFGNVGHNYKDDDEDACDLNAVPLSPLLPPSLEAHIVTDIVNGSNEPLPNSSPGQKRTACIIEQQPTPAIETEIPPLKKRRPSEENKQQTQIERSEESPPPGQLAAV
Description: His6-tagged recombinant SIR-2.1 and dSir2 were purified from E. coli BL21(DE3) plysS cells harboring either pET28a-sir-2.1 or pRSETc-dSir2 plasmids. Cells were grown in LB medium containing kanamycin (50 μg/mL) for pET28a-sir-2.1 or ampicillin (100 μg/ml) and chloramphenicol (25 μg/ml) for pRSETc-dSir2 at 30° C. (dSir2) or 37° C. (SIR-2.1) to an OD600 of 0.6-0.8.
From 0.1 to 1 μg of SIR-2.1 and 1 μg of dSir2 were used per deacetylation assay as previously described with modifications (SIR-2.1: 200 μM NAD^+, 10 μM Fluor de Lys, FdL; dSir2: 25 μM NAD^+, 10 μM FdL)^26. […] Drosophila S2 cells were grown in Schneider media with fetal calf serum at 23-28° C., seeded at 9×10^4 cells/well, grown overnight and then exposed to 1 μM TSA, 500 μM polyphenols, and 200 μM FdL for 2 hr. […] Unless otherwise indicated all initial rate measurements were means of three or more replicates obtained with single incubation times, at which point 5% or less of the substrate initially present was deacetylated.

[2] = D. melanogaster body mass; assay type: in vivo; conditions: 10 μM, 15% SY diet
Description: Feeding rate was measured in yw females with the crop-filling assay^27. […] The presence of dye-marked food in the crop was scored in sets of 20 females across five 5-minute intervals. […] Males and females were weighed daily.

rDNA silencing = experiment: Ribosomal DNA silencing assay (URA3 reporter); assay type: cell-based, S. cerevisiae
Description: Ribosomal DNA silencing assays using the URA3 reporters were performed as previously described^26. Ribosomal DNA recombination frequencies were determined by plating W303AR cells^37 on YPD medium with low adenine/histidine and counting the fraction of half-red sectored colonies using Bio-Rad Quantity One software as previously described^35. At least 6000 cells were analyzed per experiment and all experiments were performed in triplicate. All strains were pre-grown for 15 hours with the relevant compound prior to plating.

Which results are given for Oc1ccc(/C=C/c2cc(O)cc(O)c2)cc1 [Resveratrol, 3,5,4′-Trihydroxy-trans-stilbene]?
reduction of the frequency of rDNA recombination (rDNA recombination): ~60%; effect of increasing concentrations on SIRT2 activity (Human recombinant SIRT2): decrease; level of Ac-K382 compared to untreated cells ([1]; 0.5 μM resveratrol, 4 hours pre-treatment, UV radiation): marked decrease; level of Ac-K382 at higher concentrations ([1]; >50 μM resveratrol): the effect was reversed; stimulation of deacetylation, dSir2 (up to) (recombinant dSir2): ≤ 2.4 fold; body weight [2]: normal weight; effect on rDNA silencing (rDNA silencing): only minor effects
